Starred links: 1 amine or outer side, 2 acyl side, 3 side chain; linkers in the order of their positions; H or OH if unused. Non-standard residues stand in square brackets, D forms with d. Residues, ends and D or L forms follow the SMILES beside them. *: point of attachment. Trp(βS-Me,4-F) = C[C@@H](c1c[nH]c2cccc(F)c12)[C@H](N)C(=O)O; Bip(4'-COOH) = N[C@@H](Cc1ccc(-c2ccc(C(=O)O)cc2)cc1)C(=O)O; Trp(4-Cl) = N[C@@H](Cc1c[nH]c2cccc(Cl)c12)C(=O)O; X4 = O=C([C@H]1[C@@H](Cc2ccncc2)CCN1[*:1])[*:2]; Ala(pyrimidin-5-yl) = N[C@@H](Cc1cncnc1)C(=O)O; Phe(4-COOH) = N[C@@H](Cc1ccc(C(=O)O)cc1)C(=O)O; Pro(cis-4-F) = O=C(O)[C@@H]1C[C@H](F)CN1; Dap(CONH2) = NC(=O)NC[C@H](N)C(=O)O; hTyr = N[C@@H](CCc1ccc(O)cc1)C(=O)O; d(αMeD) = C[C@@](N)(CC(=O)O)C(=O)O; h4Pal = N[C@@H](CCc1ccncc1)C(=O)O; hPhe = N[C@@H](CCc1ccccc1)C(=O)O; 4Pal = N[C@@H](Cc1ccncc1)C(=O)O; d(αMeS) = C[C@@](N)(CO)C(=O)O; Dab = NCC[C@H](N)C(=O)O; Nva = CCC[C@H](N)C(=O)O; Aib = CC(C)(N)C(=O)O; Bn = c1ccc(C*)cc1

For the first assay, the target named is T1, IL-1β (Homo sapiens, UniProt P01584).
T1 construct: purchased BioLegend 579404
T1 sequence (P01584 117-269): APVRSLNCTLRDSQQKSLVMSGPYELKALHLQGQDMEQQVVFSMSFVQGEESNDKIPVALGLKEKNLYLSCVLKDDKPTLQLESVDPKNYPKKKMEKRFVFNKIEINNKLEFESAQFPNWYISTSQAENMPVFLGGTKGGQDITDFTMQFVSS
Description: IL-6 assay in MRC5 cells: inhibition of IL-1β induced IL-6 secretion (AlphaLISA). To be noted: inhibition of IL-1β induced IL-6 secretion in MRC5 cells; compound pre-incubated 1 hour with recombinant human IL-1β; read-out: MRC5 IC50. Format: cell-based. Summed up:
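Compound was pre-incubated 1 h at ambient temperature with recombinant human IL-1β at 2λ EC80 before adding human lung fibroblast MRC5 cells (3000/well) in EMEM with 0.025% BSA. After overnight culture at 37 °C, 5% CO2, secreted IL-6 in conditioned medium was measured by AlphaLISA; IC50 from 4-parameter logistic fits.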
A general note: Alpha assays give light when donor and acceptor beads are brought close together.
Take `C[C@@H](OCc1ccccc1)[C@@H]1NC(=O)[C@@](C)(CC(=O)O)NC(=O)[C@H](Cc2c[nH]c3ccccc23)NC(=O)[C@H](CO)NC(=O)C(C)(C)NC(=O)[C@H]([C@@H](C)c2c[nH]c3cccc(F)c23)NC(=O)[C@@H]2C[C@H](F)CN2C(=O)CNC(=O)[C@H](Cc2ccc(C(=O)O)cc2)NC(=O)[C@H](Cc2ccncc2)NC(=O)[C@H](Cc2ccc(-c3ccc(C(=O)O)cc3)cc2)NC(=O)[C@H]2[C@@H](Cc3ccncc3)CCN2C(=O)CNC(=O)[C@H](CCN)NC(=O)[C@H](CCC(N)=O)NC1=O` [Example 229] (cyclo([Bip(4'-COOH)][4Pal][Phe(4-COOH)]G[Pro(cis-4-F)][Trp(βS-Me,4-F)][Aib]SW[d(αMeD)]T(Bn)Q[Dab]G[X4])): the IC50 – broadly, the concentration at which inhibition is half-maximal – stood at 0.023 nM.

As to `C[C@@H](c1c[nH]c2cccc(F)c12)[C@@H]1NC(=O)[C@@H]2C[C@H](F)CN2C(=O)CNC(=O)[C@H](Cc2ccc(C(=O)O)cc2)NC(=O)[C@H](Cc2ccncc2)NC(=O)[C@H](Cc2ccc(-c3ccc(C(=O)O)cc3)cc2)NC(=O)[C@H]2[C@@H](Cc3ccncc3)CCN2C(=O)CNC(=O)[C@H](CNC(N)=O)NC(=O)[C@H](CCC(N)=O)NC(=O)[C@H](Cc2cncnc2)NC(=O)[C@@](C)(CC(=O)O)NC(=O)[C@H](Cc2c[nH]c3ccccc23)NC(=O)[C@H](CO)NC(=O)C(C)(C)NC1=O` [Example 230] (cyclo([Bip(4'-COOH)][4Pal][Phe(4-COOH)]G[Pro(cis-4-F)][Trp(βS-Me,4-F)][Aib]SW[d(αMeD)][Ala(pyrimidin-5-yl)]Q[Dap(CONH2)]G[X4])), the IC50 came to 0.022 nM.

As to `CCC[C@@H]1NC(=O)[C@@](C)(CC(=O)O)NC(=O)[C@H](Cc2c[nH]c3ccccc23)NC(=O)[C@H](CO)NC(=O)C(C)(C)NC(=O)[C@H]([C@@H](C)c2c[nH]c3cccc(F)c23)NC(=O)[C@@H]2C[C@H](F)CN2C(=O)CNC(=O)[C@H](Cc2ccc(C(=O)O)cc2)NC(=O)[C@H](Cc2ccncc2)NC(=O)[C@H](Cc2ccc(-c3ccc(C(=O)O)cc3)cc2)NC(=O)[C@H]2[C@@H](Cc3ccncc3)CCN2C(=O)CNC(=O)[C@H](CCN)NC(=O)[C@H](CCC(N)=O)NC1=O` [Example 231] (cyclo([Bip(4'-COOH)][4Pal][Phe(4-COOH)]G[Pro(cis-4-F)][Trp(βS-Me,4-F)][Aib]SW[d(αMeD)][Nva]Q[Dab]G[X4])), the IC50 was 0.027 nM.

The same assay, now with this note: inhibition of IL-1β induced IL-6 secretion in MRC5 cells; read-out: MRC5 IC50.
On to `C[C@@H](c1c[nH]c2cccc(F)c12)[C@@H]1NC(=O)[C@@H]2C[C@H](F)CN2C(=O)CNC(=O)[C@H](Cc2ccc(C(=O)O)cc2)NC(=O)[C@H](Cc2ccncc2)NC(=O)[C@H](Cc2ccc(-c3ccc(C(=O)O)cc3)cc2)NC(=O)[C@H]2[C@@H](Cc3ccncc3)CCN2C(=O)CNC(=O)[C@H](CCN)NC(=O)[C@H](CCC(N)=O)NC(=O)[C@H](CCc2ccc(O)cc2)NC(=O)[C@@](C)(CC(=O)O)NC(=O)[C@H](Cc2c[nH]c3ccccc23)NC(=O)[C@H](CO)NC(=O)C(C)(C)NC1=O` [Example 219] (cyclo([Bip(4'-COOH)][4Pal][Phe(4-COOH)]G[Pro(cis-4-F)][Trp(βS-Me,4-F)][Aib]SW[d(αMeD)][hTyr]Q[Dab]G[X4])), for which the IC50 turned out to be 0.018 nM.

Turning to `C[C@@H](c1c[nH]c2cccc(F)c12)[C@@H]1NC(=O)[C@@H]2C[C@H](F)CN2C(=O)CNC(=O)[C@H](Cc2ccc(C(=O)O)cc2)NC(=O)[C@H](Cc2ccncc2)NC(=O)[C@H](Cc2ccc(-c3ccc(C(=O)O)cc3)cc2)NC(=O)[C@H]2[C@@H](Cc3ccncc3)CCN2C(=O)CNC(=O)[C@H](CCN)NC(=O)[C@H](CCC(N)=O)NC(=O)[C@H](CCc2ccc(O)cc2)NC(=O)C(C)(C)NC(=O)[C@H](Cc2c[nH]c3ccccc23)NC(=O)[C@H](CO)NC(=O)C(C)(C)NC1=O` [Example 220] (cyclo([Bip(4'-COOH)][4Pal][Phe(4-COOH)]G[Pro(cis-4-F)][Trp(βS-Me,4-F)][Aib]SW[Aib][hTyr]Q[Dab]G[X4])), the IC50 came to 0.039 nM.

For the compound `C[C@@H](c1c[nH]c2cccc(F)c12)[C@@H]1NC(=O)[C@@H]2C[C@H](F)CN2C(=O)CNC(=O)[C@H](Cc2ccc(C(=O)O)cc2)NC(=O)[C@H](Cc2ccncc2)NC(=O)[C@H](Cc2ccc(-c3ccc(C(=O)O)cc3)cc2)NC(=O)[C@H]2[C@@H](Cc3ccncc3)CCN2C(=O)CNC(=O)[C@H](CCN)NC(=O)[C@H](CCC(N)=O)NC(=O)[C@H](CCc2ccccc2)NC(=O)[C@@](C)(CC(=O)O)NC(=O)[C@H](Cc2c[nH]c3ccccc23)NC(=O)[C@H](CO)NC(=O)C(C)(C)NC1=O` [Example 221] (cyclo([Bip(4'-COOH)][4Pal][Phe(4-COOH)]G[Pro(cis-4-F)][Trp(βS-Me,4-F)][Aib]SW[d(αMeD)][hPhe]Q[Dab]G[X4])), the IC50 is 0.02 nM.

For `C[C@@H](c1c[nH]c2cccc(F)c12)[C@@H]1NC(=O)[C@@H]2C[C@H](F)CN2C(=O)CNC(=O)[C@H](Cc2ccc(C(=O)O)cc2)NC(=O)[C@H](Cc2ccncc2)NC(=O)[C@H](Cc2ccc(-c3ccc(C(=O)O)cc3)cc2)NC(=O)[C@H]2[C@@H](Cc3ccncc3)CCN2C(=O)CNC(=O)[C@H](CCN)NC(=O)[C@H](CCC(N)=O)NC(=O)[C@H](CCc2ccncc2)NC(=O)[C@@](C)(CC(=O)O)NC(=O)[C@H](Cc2c[nH]c3ccccc23)NC(=O)[C@H](CO)NC(=O)C(C)(C)NC1=O` [Example 222] (cyclo([Bip(4'-COOH)][4Pal][Phe(4-COOH)]G[Pro(cis-4-F)][Trp(βS-Me,4-F)][Aib]SW[d(αMeD)][h4Pal]Q[Dab]G[X4])), the IC50 amounted to 0.02 nM.

With `C[C@@H](c1c[nH]c2cccc(F)c12)[C@@H]1NC(=O)[C@@H]2C[C@H](F)CN2C(=O)CNC(=O)[C@H](Cc2ccc(C(=O)O)cc2)NC(=O)[C@H](Cc2ccncc2)NC(=O)[C@H](Cc2ccc(-c3ccc(C(=O)O)cc3)cc2)NC(=O)[C@H]2[C@@H](Cc3ccncc3)CCN2C(=O)CNC(=O)[C@H](CNC(N)=O)NC(=O)[C@H](CCC(N)=O)NC(=O)[C@H](CCc2ccncc2)NC(=O)[C@@](C)(CC(=O)O)NC(=O)[C@H](Cc2c[nH]c3ccccc23)NC(=O)[C@H](CO)NC(=O)C(C)(C)NC1=O` [Example 223] (cyclo([Bip(4'-COOH)][4Pal][Phe(4-COOH)]G[Pro(cis-4-F)][Trp(βS-Me,4-F)][Aib]SW[d(αMeD)][h4Pal]Q[Dap(CONH2)]G[X4])), the 50% inhibitory concentration (IC50) worked out at 0.027 nM.

As for `COC[C@@]1(C)NC(=O)[C@H](Cc2c[nH]c3ccccc23)NC(=O)[C@H](CO)NC(=O)C(C)(C)NC(=O)[C@H]([C@@H](C)c2c[nH]c3cccc(F)c23)NC(=O)[C@@H]2C[C@H](F)CN2C(=O)CNC(=O)[C@H](Cc2ccc(C(=O)O)cc2)NC(=O)[C@H](Cc2ccncc2)NC(=O)[C@H](Cc2ccc(-c3ccc(C(=O)O)cc3)cc2)NC(=O)[C@H]2[C@@H](Cc3ccncc3)CCN2C(=O)CNC(=O)[C@H](CCN)NC(=O)[C@H](CCC(N)=O)NC(=O)[C@H](Cc2cncnc2)NC1=O` [Example 224] (cyclo([Bip(4'-COOH)][4Pal][Phe(4-COOH)]G[Pro(cis-4-F)][Trp(βS-Me,4-F)][Aib]SW[d(αMeS)](Me)[Ala(pyrimidin-5-yl)]Q[Dab]G[X4])), the IC50 worked out at 0.03 nM.

Consider `C[C@@H](c1c[nH]c2cccc(F)c12)[C@@H]1NC(=O)[C@@H]2C[C@H](F)CN2C(=O)CNC(=O)[C@H](Cc2ccc(C(=O)O)cc2)NC(=O)[C@H](Cc2ccncc2)NC(=O)[C@H](Cc2ccc(-c3ccc(C(=O)O)cc3)cc2)NC(=O)[C@H]2[C@@H](Cc3ccncc3)CCN2C(=O)CNC(=O)[C@H](CCN)NC(=O)[C@H](CCC(N)=O)NC(=O)[C@H](Cc2cncnc2)NC(=O)[C@@](C)(CC(=O)O)NC(=O)[C@H](Cc2c[nH]c3cccc(Cl)c23)NC(=O)[C@H](CO)NC(=O)C(C)(C)NC1=O` [Example 225] (cyclo([Bip(4'-COOH)][4Pal][Phe(4-COOH)]G[Pro(cis-4-F)][Trp(βS-Me,4-F)][Aib]S[Trp(4-Cl)][d(αMeD)][Ala(pyrimidin-5-yl)]Q[Dab]G[X4])), for which the IC50 amounted to 0.019 nM.

`C[C@@H](c1c[nH]c2cccc(F)c12)[C@@H]1NC(=O)[C@@H]2C[C@H](F)CN2C(=O)CNC(=O)[C@H](Cc2ccc(C(=O)O)cc2)NC(=O)[C@H](Cc2ccncc2)NC(=O)[C@H](Cc2ccc(-c3ccc(C(=O)O)cc3)cc2)NC(=O)[C@H]2[C@@H](Cc3ccncc3)CCN2C(=O)CNC(=O)[C@H](CNC(N)=O)NC(=O)[C@H](CCC(N)=O)NC(=O)[C@H](Cc2cncnc2)NC(=O)[C@@](C)(CC(=O)O)NC(=O)[C@H](Cc2c[nH]c3cccc(Cl)c23)NC(=O)[C@H](CO)NC(=O)C(C)(C)NC1=O` [Example 226] (cyclo([Bip(4'-COOH)][4Pal][Phe(4-COOH)]G[Pro(cis-4-F)][Trp(βS-Me,4-F)][Aib]S[Trp(4-Cl)][d(αMeD)][Ala(pyrimidin-5-yl)]Q[Dap(CONH2)]G[X4])): the IC50 amounted to 0.022 nM.

In the case of `CO[C@H](C)[C@@H]1NC(=O)[C@@](C)(CC(=O)O)NC(=O)[C@H](Cc2c[nH]c3ccccc23)NC(=O)[C@H](CO)NC(=O)C(C)(C)NC(=O)[C@H]([C@@H](C)c2c[nH]c3cccc(F)c23)NC(=O)[C@@H]2C[C@H](F)CN2C(=O)CNC(=O)[C@H](Cc2ccc(C(=O)O)cc2)NC(=O)[C@H](Cc2ccncc2)NC(=O)[C@H](Cc2ccc(-c3ccc(C(=O)O)cc3)cc2)NC(=O)[C@H]2[C@@H](Cc3ccncc3)CCN2C(=O)CNC(=O)[C@H](CCN)NC(=O)[C@H](CCC(N)=O)NC1=O` [Example 227] (cyclo([Bip(4'-COOH)][4Pal][Phe(4-COOH)]G[Pro(cis-4-F)][Trp(βS-Me,4-F)][Aib]SW[d(αMeD)]T(Me)Q[Dab]G[X4])), the IC50 was found to be 0.014 nM.

As for `CO[C@H](C)[C@@H]1NC(=O)[C@@](C)(CC(=O)O)NC(=O)[C@H](Cc2c[nH]c3ccccc23)NC(=O)[C@H](CO)NC(=O)C(C)(C)NC(=O)[C@H]([C@@H](C)c2c[nH]c3cccc(F)c23)NC(=O)[C@@H]2C[C@H](F)CN2C(=O)CNC(=O)[C@H](Cc2ccc(C(=O)O)cc2)NC(=O)[C@H](Cc2ccncc2)NC(=O)[C@H](Cc2ccc(-c3ccc(C(=O)O)cc3)cc2)NC(=O)[C@H]2[C@@H](Cc3ccncc3)CCN2C(=O)CNC(=O)[C@H](CNC(N)=O)NC(=O)[C@H](CCC(N)=O)NC1=O` [Example 228] (cyclo([Bip(4'-COOH)][4Pal][Phe(4-COOH)]G[Pro(cis-4-F)][Trp(βS-Me,4-F)][Aib]SW[d(αMeD)]T(Me)Q[Dap(CONH2)]G[X4])), the concentration for half-maximal inhibition (IC50) amounted to 0.021 nM.

Source of the values: US20260242419A1, “A CYCLIC PEPTIDE FOR TRAPPING INTERLEUKIN-1 BETA” (Merck Sharp & Dohme LLC, priority 2023, published 2026).
